Measurements published in ChEMBL document CHEMBL3044770, “Studies on toxicity of antitubercular drugs namely isoniazid, rifampicin, and pyrazinamide in an in vitro model of HepG2 cell line” (Med Chem Res, 2011).

Legend:
Assay type in all cases: cell-based
[1] = Toxicity in pyrazinamide pretreated Homo sapiens (human) HepG2 cells assessed as cell viability at 200 mM after 24 hr by MTT assay; details: HepG2 cells pretreated with pyrazinamide, read-out: Activity
[2] = Toxicity in Homo sapiens (human) HepG2 cells assessed as cell viability at 10 mM after 24 hr by MTT assay; details: read-out: Activity
[3] = Toxicity in Homo sapiens (human) HepG2 cells assessed as cell viability at 1 mM after 24 hr by MTT assay; details: read-out: Activity
[4] = Toxicity in Homo sapiens (human) HepG2 cells assessed as cell viability at 5 mM after 24 hr by MTT assay; details: read-out: Activity
HepG2 = test: Toxicity in Homo sapiens (human) HepG2 cells assessed as change in cell morphology at 1 mM after 24 hr by phase contrast microscopic analysis; details: hepg2, 24 h, 1000 µM
[5] = Toxicity in Homo sapiens (human) HepG2 cells assessed as cell viability at 50 mM after 24 hr by MTT assay; details: read-out: Activity
[6] = Toxicity in isoniazid pretreated Homo sapiens (human) HepG2 cells assessed as cell viability at 200 mM after 24 hr by MTT assay; details: HepG2 cells pretreated with isoniazid, read-out: Activity
[7] = Toxicity in Homo sapiens (human) HepG2 cells assessed as cell viability at 50 uM after 24 hr by MTT assay; details: read-out: Activity
[8] = Toxicity in Homo sapiens (human) HepG2 cells assessed as cell viability at 100 uM after 24 hr by MTT assay; details: read-out: Activity
[9] = Toxicity in Homo sapiens (human) HepG2 cells assessed as cell viability at 25 uM after 24 hr by MTT assay; details: read-out: Activity

| Compound | viability at 24 h, 200000 µM [1] | viability at 24 h, 10000 µM [2] | viability at 24 h, 1000 µM [3] | viability at 24 h, 5000 µM [4] | Activity (HepG2) | viability at 24 h, 50000 µM [5] | viability at 24 h, 200000 µM [6] | viability at 24 h, 50 µM [7] | viability at 24 h, 100 µM [8] | viability at 24 h, 25 µM [9] |
| --- | --- | --- | --- | --- | --- | --- | --- | --- | --- | --- |
| NNC(=O)c1ccncc1 [ISONIAZID] | 56.1% | 129% | 125% | 99.7% | Non-toxic | 91.3% |  |  |  |  |
| NC(=O)c1cnccn1 [PYRAZINAMIDE] |  | 104% | 87.7% | 102% | Non-toxic | 102% | 60.1% |  |  |  |
| CO[C@H]1/C=C/O[C@@]2(C)Oc3c(C)c(O)c4c(O)c(c(/C=N/N5CCN(C)CC5)c(O)c4c3C2=O)NC(=O)/C(C)=C\C=C\[C@H](C)[C@H](O)[C@@H](C)[C@@H](O)[C@@H](C)[C@H](OC(C)=O)[C@@H]1C [RIFAMPIN] |  |  |  |  |  |  |  | 116% | 192% | 115% |
